Results on six compounds are retold here after EP3878447A1, “BETA ADRENERGIC RECEPTOR ANTAGONISTS” (InterAx Biotech AG, priority 2020, dated 2021).

Test [1] deals with T1, B2AR (Homo sapiens, UniProt P07550). As to the kind of experiment: Heterologous competition radioligand binding assay ([3H]-DHA) on SNAP-B2AR HEK membranes. Conditions: equilibrium competition binding with 1 nM [3H]-DHA, 120 min RT, mean ± SD.
From the text: Radioactivity was quantified using single photon counting on a TopCount NXT microplate scintillation and luminescence counter (Packard).
In test [2] the target is T1, B2AR.
The next test concerns the target B1AR (Homo sapiens, UniProt P08588). Description: Real-time cAMP inhibition assay in SNAP-B1AR-EPAC HEK cells. Conditions: SNAP-B1AR-EPAC HEK cells stimulated with 50 nM Isoproterenol for 10 min, compound for additional 40 min, AUC of EPAC FRET ratio; mean ± SD.
The target in test [3] is T1, B2AR. Description: biochemical.
Test [4] addresses T1, B2AR. Description: Saturation binding of [3H]-DHA on SNAP-B2AR HEK membranes. Conditions: 5 µg SNAP-B2AR HEK membranes, specific binding; Mean ± SD, n=3; read-out: equilibrium dissociation constant (KD). More on the design: membranes prepared from it.

Counter-ions that a name gives are not always drawn. Like-named read-outs stand apart in the source and are kept apart here.

Broadly, the pKi is the negative decadic logarithm of the Ki, by convention in mol/L. A lower pKi goes with a high Ki. The Ki is the equilibrium dissociation constant of an inhibitor or competing ligand from its target. What is called pIC50 is −log10 of the IC50, conventionally taken in molar units. A word on the Kd: it is the free concentration of one partner at which half of the binding sites on the other are occupied at equilibrium, for simple one-to-one binding.

B1AR, sequence (P08588 whole entry): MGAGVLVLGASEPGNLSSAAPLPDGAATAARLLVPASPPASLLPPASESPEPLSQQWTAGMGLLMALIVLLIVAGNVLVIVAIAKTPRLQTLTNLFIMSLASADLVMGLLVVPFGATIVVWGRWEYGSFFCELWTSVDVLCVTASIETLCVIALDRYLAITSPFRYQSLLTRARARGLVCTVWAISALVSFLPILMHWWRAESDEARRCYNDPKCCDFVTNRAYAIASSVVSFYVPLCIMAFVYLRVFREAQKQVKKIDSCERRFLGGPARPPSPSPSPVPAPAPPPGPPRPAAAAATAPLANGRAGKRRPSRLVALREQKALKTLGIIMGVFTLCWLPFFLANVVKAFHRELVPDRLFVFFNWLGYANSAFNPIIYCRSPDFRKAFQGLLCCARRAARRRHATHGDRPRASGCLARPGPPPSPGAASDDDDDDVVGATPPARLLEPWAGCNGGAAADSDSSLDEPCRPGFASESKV

“4-[2-(aminomethyl)-2,3-dihydro-1-benzofuran-7-yl]benzamide [Compound 7]” had a pKi at B2AR [1] of 6.0 ± 0.1. Moreover, affinity at B2AR [2] was put at a Ki of 1260 nM. In addition, the pIC50 on B1AR turned out to be 4.6 ± 0.5.

“5-[2-(aminomethyl)-2,3-dihydro-1-benzofuran-7-yl]pyridin-2-amine [Compound 5]” came in with a pKi on B2AR [1] of 5.5 ± 0.1. Further, at B2AR [2], affinity was put at a Ki of 2510 nM.

With `NCC1Cc2cccc(-c3ccc(O)cc3)c2O1` (stereo not drawn) [Compound 4, 4-[2-(aminomethyl)-2,3-dihydro-1-benzofuran-7-yl]phenol], the Ki at B2AR [3] was 100 to 1000 nM.

With `COc1ccc(-c2cc(F)cc3c2OC(CN)C3)cn1` (stereo not drawn) [Compound 6, 1-[5-fluoro-7-(6-methoxypyridin-3-yl)-2,3-dihydro-1-benzofuran-2-yl]methanamine], the Ki on B2AR [3] was 100 to 1000 nM.

Consider `NCC1Cc2cccc(-c3ccc(O)c(F)c3)c2O1` (stereo not drawn) [Compound 8, 4-[2-(aminomethyl)-2,3-dihydro-1-benzofuran-7-yl]-2-fluorophenol], for which, on B2AR [3], the Ki lay within 100 to 1000 nM.

As to `CCCc1ccccc1OC[C@@H](O)CNC(C)C` [[^3H]-DHA, Dihydroalprenolol Hydrochloride, Levo-[Ring, Propyl-3H(N)]-], on B2AR [4], the Kd turned out to be 0.3 ± 0.1 nM.
